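Test compounds were applied to cells in 96-well plates for 48 hours at 5 doses. TGI marks complete inhibition of growth.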

Among the test systems are HOP-92 NSCLC; HCT-116 colon; OVCAR-3 ovarian; UO-31 renal; A549 NSCLC; RXF 393 renal; OVCAR-5 ovarian; OVCAR-8 ovarian; SW-620 colon; K-562 leukemia; SK-MEL-5 melanoma; HCT-15 colon; 786-0 renal; SF-295 CNS; SK-OV-3 ovarian; IGROV1 ovarian; EKVX NSCLC; KM12 colon; HL-60(TB) leukemia.
What all share (experiment): DTP human tumour cell line panel, 48 h

With `CC(=O)N1CN2C(=O)CCC2c2ccccc21` (stereo unspecified), the TGI in the assay with HOP-92 NSCLC, in the assay on HCT-116 colon, in the assay on OVCAR-3 ovarian, with UO-31 renal, in the assay on A549 NSCLC and in the assay with RXF 393 renal was more than 100 µM in each case. Also, the TGI with OVCAR-5 ovarian, in the assay with OVCAR-8 ovarian, with SW-620 colon, with K-562 leukemia, with SK-MEL-5 melanoma and in the assay on HCT-15 colon was more than 100 µM throughout. The total growth inhibition concentration (TGI) with 786-0 renal, with SF-295 CNS, in the assay with SK-OV-3 ovarian, with IGROV1 ovarian, with EKVX NSCLC and in the assay on KM12 colon was more than 100 µM each time.
`COc1ccc(/C(Cl)=C(/c2ccc(O)cc2)c2ccc(OCCN(C)C)cc2)cc1`: the TGI in the assay on OVCAR-3 ovarian was found to be 28.8 µM; with UO-31 renal it was 19.7 µM; with A549 NSCLC, 26.7 µM; in the assay on RXF 393 renal, 18.4 µM; in the assay with OVCAR-5 ovarian, 26.1 µM; in the assay on OVCAR-8 ovarian, 28.9 µM. For the same compound, the TGI was 24.2 µM in the assay with SW-620 colon; 26 µM in the assay with HL-60(TB) leukemia; 16.9 µM in the assay with SK-MEL-5 melanoma; 23.3 µM in the assay with HCT-15 colon; 18.8 µM with 786-0 renal; 16.3 µM in the assay with SF-295 CNS. For the same compound, the TGI in the assay on SK-OV-3 ovarian stood at 26.3 µM; with IGROV1 ovarian, 33.2 µM; with EKVX NSCLC it was 30.3 µM; in the assay on KM12 colon, 21.1 µM.
`Cc1nc2ccc(Cl)cc2c2c1CCS2`: the total growth inhibition concentration (TGI) in the assay with HCT-116 colon, with OVCAR-3 ovarian, with UO-31 renal, with A549 NSCLC, in the assay with RXF 393 renal and in the assay with OVCAR-5 ovarian was more than 100 µM throughout. Also, the TGI in the assay with OVCAR-8 ovarian was more than 100 µM; in the assay on SW-620 colon it was more than 100 µM; in the assay with HL-60(TB) leukemia, 65 µM; with K-562 leukemia, more than 100 µM; in the assay on SK-MEL-5 melanoma it was 77.7 µM; in the assay on HCT-15 colon, more than 100 µM. Also, the concentration for total growth inhibition (TGI) in the assay on 786-0 renal, in the assay on SF-295 CNS, in the assay on SK-OV-3 ovarian, in the assay on IGROV1 ovarian and in the assay with KM12 colon was more than 100 µM in each case.
On to `N#CCCN(c1ccc(/C=C2\N=C(Cc3ccccc3)OC2=O)cc1)S(=O)(=O)c1ccccc1`, for which the TGI in the assay with HCT-116 colon, in the assay with OVCAR-3 ovarian, in the assay with UO-31 renal, in the assay with A549 NSCLC, with RXF 393 renal and in the assay with OVCAR-5 ovarian was more than 100 µM throughout. Besides, the TGI in the assay with OVCAR-8 ovarian, in the assay with SW-620 colon, in the assay on HL-60(TB) leukemia, in the assay with K-562 leukemia, in the assay on SK-MEL-5 melanoma and in the assay with HCT-15 colon was more than 100 µM each time. The TGI in the assay on 786-0 renal, in the assay on SF-295 CNS, in the assay with SK-OV-3 ovarian, in the assay on IGROV1 ovarian, with EKVX NSCLC and in the assay with KM12 colon was more than 100 µM in each case.
Take `CCCOC(=O)C1CCC(=O)N1C(=O)C(C)Cl` (stereo unspecified): the concentration for total growth inhibition (TGI) with HOP-92 NSCLC, in the assay with HCT-116 colon, with OVCAR-3 ovarian, in the assay with UO-31 renal, in the assay on A549 NSCLC and in the assay with OVCAR-5 ovarian was more than 100 µM in each case. Further, the TGI in the assay with OVCAR-8 ovarian, in the assay with SW-620 colon, in the assay on HL-60(TB) leukemia, in the assay with K-562 leukemia, in the assay with SK-MEL-5 melanoma and in the assay on HCT-15 colon was more than 100 µM each time. Moreover, the concentration for total growth inhibition (TGI) in the assay on 786-0 renal, in the assay on SF-295 CNS, in the assay with SK-OV-3 ovarian, in the assay on IGROV1 ovarian, in the assay on EKVX NSCLC and in the assay on KM12 colon was more than 100 µM throughout.
As for `Nc1ccc2nc(NCc3ccc(F)cc3)cnc2c1`, the TGI in the assay on HCT-116 colon, with OVCAR-3 ovarian, in the assay on UO-31 renal, with A549 NSCLC, in the assay on RXF 393 renal and in the assay on OVCAR-5 ovarian was more than 100 µM throughout. The TGI in the assay with OVCAR-8 ovarian, in the assay on SW-620 colon, with HL-60(TB) leukemia, in the assay with K-562 leukemia, in the assay on SK-MEL-5 melanoma and in the assay on HCT-15 colon was more than 100 µM each time. For the same compound, the TGI in the assay with 786-0 renal, in the assay on SF-295 CNS, in the assay on IGROV1 ovarian, in the assay with EKVX NSCLC and in the assay on KM12 colon was more than 100 µM throughout.
With `C=CCOC(=O)Cn1cc(C)c(=O)[nH]c1=O`, the concentration for total growth inhibition (TGI) with HCT-116 colon, with UO-31 renal, in the assay on A549 NSCLC, with OVCAR-8 ovarian, with SW-620 colon and in the assay with HL-60(TB) leukemia was more than 100 µM in each case. Moreover, the total growth inhibition concentration (TGI) in the assay on K-562 leukemia, in the assay with SK-MEL-5 melanoma, with HCT-15 colon, in the assay on 786-0 renal, in the assay on SF-295 CNS and in the assay on SK-OV-3 ovarian was more than 100 µM each time. Moreover, the TGI in the assay with IGROV1 ovarian, with EKVX NSCLC and with KM12 colon was more than 100 µM in each case.
In the case of `Cc1ccc(S(=O)(=O)n2c3c(c4ccccc42)CCN2C(=O)C(S(=O)(=O)c4ccccc4)=CCC32)cc1` (stereo unspecified), the concentration for total growth inhibition (TGI) in the assay with HOP-92 NSCLC came out at 0.315 µM; with OVCAR-3 ovarian, 0.332 µM; in the assay with UO-31 renal, 0.384 µM; in the assay with A549 NSCLC it was 2.77 µM; in the assay with RXF 393 renal, 0.273 µM; with OVCAR-5 ovarian, 0.581 µM. The TGI in the assay with OVCAR-8 ovarian stood at 0.328 µM; in the assay with SW-620 colon it was 0.715 µM; in the assay with HL-60(TB) leukemia, 0.468 µM; with K-562 leukemia it was 0.673 µM; in the assay with SK-MEL-5 melanoma, 0.337 µM; in the assay with HCT-15 colon it was 0.421 µM. Further, the TGI in the assay on 786-0 renal was determined as 0.346 µM; in the assay on SF-295 CNS, 3.49 µM; in the assay with SK-OV-3 ovarian, 2.61 µM; in the assay with IGROV1 ovarian, 0.36 µM; with KM12 colon it was 0.645 µM.

For the origin of these results see PubChem BioAssay (NCI).
